According to publication PMC11239005, “Preclinical studies of RA475, a guanidine-substituted spirocyclic candidate RPN13/ADRM1 inhibitor for treatment of ovarian cancer” (PLOS ONE, 2024):
“Also recorded” adds a separate entry of the source. Where two headings read alike, the source gives them in different places.

Legend:
CT26 = assay: MTT cytotoxicity assay, CT26; format: cell-based; details: Mus musculus, CT26, 72 h
Experimental: (§1) All cell lines were obtained from the American Type Culture Collection (ATCC) and cultured in the specified medium supplemented with 10% fetal bovine serum, 100 IU/mL penicillin, and 100 μg/mL streptomycin at 37°C in a humidified 5% CO2/95% air incubator. Synthesis of new compounds is described in S1 File, and >95% purity of RA475, Up284 and its analogs were confirmed by NMR and MS. To assess drug cytotoxicity, cells were seeded at 2,500 cells/well (10,000 cells/well for MM lines) in 100 μL medium in 96-well plate as triplicates and after 24 h treated with compounds for a further 72 h. To assess cytotoxicity, the cells were incubated for 2 h at 37°C according to the manufacturer’s protocol with the Thiazolyl Blue Tetrazolium Bromide (20 μL/well of 5 mg/mL stock solution in water) (Sigma, M5655) and A570 measured using a Benchmark Plus microplate spectrophotometer (BIO-RAD). IC50 was estimated using Graphpad Prism 7 software.

[1] = tested on: 4UbFL expressed in leg muscle; assay: 4UbFL reporter in leg muscle of CD-1 mice; format: in vivo, mouse; details: for 4UbFL bioluminescence from leg muscle vs vehicle: single IP dose 40 mg/Kg, 4-96 h
Experimental: A patch of CD1 mouse leg was shaved of hair and 10 μg 4Ub-FL plasmid in 20 μL of PBS was injected into the quadriceps femoralis muscle followed immediately by injection of the 2 Needle Array to 5 mm depth encompassing the injection site and square wave EP (ElectroSquarePorator 833, BTX-2 Needle array 5mm gap, Harvard apparatus) delivered as eight pulses at 106 V for 20 ms with 200 ms intervals. One day post-EP, mice were anesthetized with isoflurane, injected IP with luciferin (0.3 mg in 100 μL water) and optical imaging was performed to determine basal level luciferase expression. Images were acquired for 10 min with a Xenogen IVIS 200 (Caliper, Hopkinton, MA). Equally sized areas were analyzed using Living Image 2.20 software.
Fig 3 Impact of RA475 on proteasome function. […] Actin was used as loading control. […] C) 4T1 and HCC1806 cells stably expressing 4UbFL were treated with compounds at indicated doses for 4 h and imaged by IVIS200 after the addition of luciferin substrate (50 μL, 7mg/mL in PBS). D) Sub-confluent cultures of ES2 cells stably expressing 4UbFL were seeded at 10,000 cells/well in 96-well microtiter plates. At 18 h post transfection, cells were treated with compounds or vehicle (DMSO) at the doses indicated. After a 4 h incubation, the cells were lysed and the luciferase activity in each cell lysate was determined with a luciferase assay kit (Promega) according to the manufacturer’s instructions. Bioluminescence was measured by using a luminometer (Glomax Multidetection system, Promega) E) A patch was shaved of hair on one leg of CD-1 mice, and 10 μg 4UbFL plasmid in 20 μL of PBS was injected into the quadriceps femoralis muscle followed immediately by injection of the 2 Needle Array to 5 mm depth encompassing the injection site and square wave electroporation (ElectroSquarePorator 833, BTX-2 Needle array 5mm gap, Harvard apparatus) delivered as eight pulses at 106V for 20 ms with 200 ms intervals. One day post electroporation, mice were anesthetized with isoflurane, injected IP with luciferin (0.3 mg in 100 μL water) and optical imaging was performed to determine basal level luciferase expression. Images were acquired for 10 min with a Xenogen IVIS 200 (Caliper, Hopkinton, MA). Equally sized areas were analyzed using Living Image 2.20 software. Mice were imaged weekly during treatment. Mice were randomized into three groups (n = 5) and treated IP once with Vehicle (25% (w/v) β-Hydroxypropylcyclodextrin in water, Sigma Aldrich) alone, RA475 (40 mg/Kg) or Up284 (40 mg/Kg) and mice were imaged again at 4 h, 24 h, 48 h, 72 h and 96 h later. F) Same as in E but RA475 (40mg/Kg) and ixazomib (10mg/Kg, recommended dose) were delivered orally. Thick line indicates median measurements. […]

PEA2 = assay: MTT cytotoxicity assay, PEA2; format: cell-based; details: Homo sapiens
Experimental: as §1
Modifications of Up284 were sought to improve its drug-like properties without significant compromise of its activity in vivo, and several new compounds were synthesized (S1 File). Based on our prior studies of its pharmacophore, the central ring nitrogen was the most logical for addition of charged moieties, including RA475 and RA484. We also examined a change to either 3,4 spiro rings (RA477, RA479), or addition of 3-Fluoro substitutions (RA482) (S1 File). Our focus is developing iRPN13 to treat ovarian cancer resistant to standard of care drug regimens.

TSH1 = assay: MTT cytotoxicity assay, TSH1; format: cell-based; details: TSH1, 72 h
Experimental: as §1

DLD1 = assay: MTT cytotoxicity assay, DLD1; format: cell-based; details: Homo sapiens, DLD-1, DLD1, 72 h
Experimental: as §1

4UbFL in 4T1 cells = assay: 4UbFL reporter assay, 4T1; format: cell-based; details: 4T1 stably expressing 4UbFL, 4 h
Experimental: Sub-confluent cultures of cells were transfected with 4UbFL plasmid using TransIT 2020 reagent (Mirus Bio). Cells were seeded at 10,000 cells/well in 96-well plates 48 h post transfection, and incubated with compounds or vehicle (DMSO) at the doses and for the times indicated. Luciferase activity in cell lysate was determined with a luciferase assay kit (Promega) according to the manufacturer’s instructions. Bioluminescence was measured using a Glomax Multidetection system (Promega).
Fig 3 Impact of RA475 on proteasome function. […] Actin was used as loading control. […] After a 4 h incubation, the cells were lysed and the luciferase activity in each cell lysate was determined with a luciferase assay kit (Promega) according to the manufacturer’s instructions. Bioluminescence was measured by using a luminometer (Glomax Multidetection system, Promega) E) A patch was shaved of hair on one leg of CD-1 mice, and 10 μg 4UbFL plasmid in 20 μL of PBS was injected into the quadriceps femoralis muscle followed immediately by injection of the 2 Needle Array to 5 mm depth encompassing the injection site and square wave electroporation (ElectroSquarePorator 833, BTX-2 Needle array 5mm gap, Harvard apparatus) delivered as eight pulses at 106V for 20 ms with 200 ms intervals. […] Equally sized areas were analyzed using Living Image 2.20 software. […]

MC38 = assay: MTT cytotoxicity assay, MC38; format: cell-based; details: Mus musculus, MC-38, MC38, 72 h
Experimental: as §1

[2] = 1 h; Up284 not in this paper's method, no reference at the place; cited from earlier work

Row | Compound | IC50 (CT26) [nM] | 4UbFL stabilization, fold over baseline ([1]; 40 mg/Kg IP) [fold] | 4UbFL bioluminescence from leg muscle vs vehicle [1] | stabilization of 4UbFL in muscle ([1]; single oral (PO) 40 mg/Kg dose, 40 mg/kg) | IC50 (PEA2; 72 h) [nM] | IC50 (TSH1) [nM] | IC50 (DLD1) [nM] | 4UbFL bioluminescence signal (4UbFL in 4T1 cells) | IC50 (MC38) [nM] | present after 1 h in liver microsomes [2] [%] | IC50 (PEA2; PEA2, 72 h, MTT, read-out: IC50) [nM]
1 | Cl.Cl.N#Cc1ccc(/C=C2/C(=O)/C(=C/c3ccc(C#N)cc3)C23CCN(C(=N)N)CC3)cc1 [RA475, 1,3-bis((E)-4-cyanobenzylidene)-2-oxo-7-azaspiro[3.5]nonane-7-carboximidamide dihydrochloride] | 630 | > 20 | rapidly increased the bioluminescence | much lower than seen for the single IV dose; also recorded: minimal stabilization | 356 | 114 | 495 | dose dependent increases in bioluminescence signal | 446 | – | –
2 | N#Cc1ccc(/C=C2/C(=O)/C(=C/c3ccc(C#N)cc3)C23CCNCC3)cc1 [Up284, reference compound] | 50 | – | much weaker effect | – | – | 70 | 110 | – | 60 | 52 | 144
